Kinact/Kl data for 15 compounds are collected here from patent US20250230165A1, “HETEROCYCLIC COMPOUNDS FOR USE IN THE TREATMENT OF CANCER” (ARTIOS PHARMA LIMITED, priority 2021, published 2025).

The target of the test is T1, Human Polθ polymerase domain (aa1820-2590) (Homo sapiens, UniProt O75417).
T1 construct: Human Polθ polymerase domain (aa1820-2590) was expressed in E. coli; made in house; host or cells: E. coli
T1 sequence (O75417 1820-2590): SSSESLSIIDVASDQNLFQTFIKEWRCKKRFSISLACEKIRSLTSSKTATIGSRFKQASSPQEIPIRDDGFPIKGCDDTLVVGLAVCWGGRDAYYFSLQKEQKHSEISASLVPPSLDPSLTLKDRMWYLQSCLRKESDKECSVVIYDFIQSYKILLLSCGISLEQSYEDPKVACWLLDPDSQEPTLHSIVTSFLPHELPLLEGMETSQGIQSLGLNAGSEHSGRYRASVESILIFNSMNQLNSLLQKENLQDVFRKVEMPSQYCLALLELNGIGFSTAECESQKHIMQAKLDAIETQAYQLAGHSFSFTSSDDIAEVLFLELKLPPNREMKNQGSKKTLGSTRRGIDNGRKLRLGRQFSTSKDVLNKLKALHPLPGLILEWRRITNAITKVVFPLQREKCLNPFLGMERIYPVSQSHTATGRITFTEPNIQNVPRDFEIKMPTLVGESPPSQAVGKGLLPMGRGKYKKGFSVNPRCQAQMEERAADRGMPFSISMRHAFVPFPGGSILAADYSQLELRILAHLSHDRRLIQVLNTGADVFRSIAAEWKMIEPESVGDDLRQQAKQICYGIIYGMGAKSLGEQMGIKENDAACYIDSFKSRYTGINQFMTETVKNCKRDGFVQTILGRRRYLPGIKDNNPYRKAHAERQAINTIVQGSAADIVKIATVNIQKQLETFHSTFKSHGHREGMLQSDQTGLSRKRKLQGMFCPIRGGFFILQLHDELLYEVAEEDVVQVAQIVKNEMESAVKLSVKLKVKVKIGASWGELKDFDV
The experiment in a line: Polθ Polymerase Domain Kinact/KI Assay (PicoGreen). The settings on record: 0.8 nM Polθ, 100 nM DNA substrate, kobs vs [I] fit for 2-step covalent inhibitor. In kind it is biochemical. The method, boiled down:
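PicoGreen fluorescence read-out of primer extension; progress curves per inhibitor concentration fitted for kobs, then kobs vs [I] fitted to a two-step covalent model to give Kinact and KI. Conditions: 0.8 nM enzyme, 100 nM DNA substrate, […].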
`C=CC(=O)N1C[C@@H](F)[C@@H](n2cc(CN3C[C@H]4CC(=O)N(c5cc(C(F)(F)F)cc(C)n5)[C@@H]4C(=O)N(C)c4cccc(C)c43)cn2)C1` (single isomer, unassigned) [Example 325d] had a Kinact/Kl of 1.77e+06 M⁻¹ s⁻¹.

`C=CC(=O)N1CCC(N2CCC(CN3C[C@H]4CC(=O)N(c5cc(C(F)(F)F)cc(C)n5)[C@@H]4C(=O)N(C)c4cccc(C)c43)CC2)C1` (mixture of isomers) [Example 95a, (3aR,11aS)-5-((1-((S/R)-1-acryloylpyrrolidin-3-yl)piperidin-4-yl)methyl)-6,10-dimethyl-1-(6-methyl-4-(trifluoromethyl)pyridin-2-yl)-1,3a,4,5,10,11a-hexahydro-2H-benzo[b]pyrrolo[2,3-f][1,4]diazocine-2,11(3H)-dione] yielded a Kinact/Kl of 2.63e+06 M⁻¹ s⁻¹.

Regarding `C=CC(=O)N1CC(N2CCC(CN3C[C@H]4CC(=O)N(c5cc(C(F)(F)F)cc(C)n5)[C@@H]4C(=O)N(C)c4cccc(Cl)c43)C(O)C2)C1` (stereo partly drawn) [Example 96, (3aR,11aS)-5-((1-(1-acryloylazetidin-3-yl)-3-hydroxypiperidin-4-yl)methyl)-6-chloro-10-methyl-1-(6-methyl-4-(trifluoromethyl)pyridin-2-yl)-1,3a,4,5,10,11a-hexahydro-2H-benzo[b]pyrrolo[2,3-f][1,4]diazocine-2,11(3H)-dione], the Kinact/Kl stood at 810000 M⁻¹ s⁻¹.

Consider `CC(=O)N1CCN(C/C=C/C(=O)Nc2ccc(CN3C[C@H]4CC(=O)N(c5cc(C(F)(F)F)cc(C)n5)[C@@H]4C(=O)N(C)c4cccc(C)c43)cc2)CC1` [Example 249, (E)-4-(4-acetylpiperazin-1-yl)-N-(4-(((3aR,11aS)-6,10-dimethyl-1-(6-methyl-4-(trifluoromethyl)pyridin-2-yl)-2,11-dioxo-1,2,3,3a,4,10,11,11a-octahydro-5H-benzo[b]pyrrolo[2,3-f][1,4]diazocin-5-yl)methyl)phenyl)but-2-enamide], for which the Kinact/Kl is 110000 M⁻¹ s⁻¹.

Compound `C=CC(=O)N1CC2(CN(CCN3C[C@H]4CC(=O)N(c5cc(C(F)(F)F)cc(C)n5)[C@@H]4C(=O)N(C)c4cccc(F)c43)C[C@H](C)N2)C1` [Example 32, (3aR,11aS)-5-(2-((S)-2-acryloyl-6-methyl-2,5,8-triazaspiro[3.5]nonan-8-yl)ethyl)-6-fluoro-10-methyl-1-(6-methyl-4-(trifluoromethyl)pyridin-2-yl)-1,3a,4,5,10,11a-hexahydro-2H-benzo[b] pyrrolo[2,3-f][1,4] diazocine-2,11(3H)-dione] had a Kinact/Kl of 420000 M⁻¹ s⁻¹.

As to `C=C(CN(C)C)C(=O)N1CC(OCCCN2C[C@H]3CC(=O)N(c4cc(C(F)(F)F)cc(C)n4)[C@@H]3C(=O)N(C)c3ccccc32)C1` [Example 81, (3aR,11aS)-5-(3-((1-(2-((dimethylamino)methyl)acryloyl)azetidin-3-yl)oxy)propyl)-10-methyl-1-(6-methyl-4-(trifluoromethyl)pyridin-2-yl)-1,3a,4,5,10,11a-hexahydro-2H-benzo[b]pyrrolo[2,3-f][1,4]diazocine-2,11(3H)-dione], the Kinact/Kl came out at 2.03e+06 M⁻¹ s⁻¹.

For `Cc1cc(C(F)(F)F)cc(N2C(=O)C[C@@H]3CN(Cc4ccc(CNC(=O)/C=C/CN(C)C)cc4)c4c(C)cccc4N(C)C(=O)[C@H]32)n1` [Example 177, (E)-N-(4-(((3aR, 11aS)-6,10-dimeth-yl-1-(6-methyl-4-(trifluoromethyl)-pyridin-2-yl)-2,11-dioxo-1,2,3,3a,4, 10,11,11a-octa-hydro-5H-benzo[b]pyrrolo[2,3-f][1,4]diazocin-5-yl)-methyl)benzyl)-4-(dimethylamino)-but-2-enamide], the Kinact/Kl amounted to 260000 M⁻¹ s⁻¹.

In the case of `C=CC(=O)N1CC(N(C)C[C@H](O)CN2C[C@H]3CC(=O)N(c4cc(C(F)(F)F)cc(C)n4)[C@@H]3C(=O)N(C)c3cccc(Cl)c32)C1` (racemic) [Example 68, (3aR,11aS)-5-((S/R)-3-((1-acryloylazetidin-3-yl)(methyl)amino)-2-hydroxypropyl)-6-chloro-10-methyl-1-(6-methyl-4-(trifluoromethyl)pyridin-2-yl)-1,3a,4,5,10,11a-hexahydro-2H-benzo[b]pyrrolo[2,3-f][1,4]diazocine-2,11(3H)-dione], the Kinact/Kl worked out at 660000 M⁻¹ s⁻¹.

As for `C=CC(=O)N1CC2(CN(CCN3C[C@H]4CC(=O)N(c5cc(C(F)(F)F)cc(C)n5)[C@@H]4C(=O)N(C)c4cccc(F)c43)CC3COCCN32)C1` (single isomer, unassigned) [Example 24a], the Kinact/Kl came to 1.63e+06 M⁻¹ s⁻¹.

In turn, `C=CC(=O)N1CC(N2CCC(CN3C[C@H]4CC(=O)N(c5cc(C(F)(F)F)cc(C)n5)[C@@H]4C(=O)N(C)c4cccc(Cl)c43)CC2)C1` [Example 92, (3aR,11aS)-5-((1-(1-acryloylazetidin-3-yl)piperidin-4-yl)methyl)-6-chloro-10-methyl-1-(6-methyl-4-(trifluoromethyl)pyridin-2-yl)-1,3a,4,5,10,11a-hexahydro-2H-benzo[b]pyrrolo[2,3-f][1,4]diazocine-2,11(3H)-dione] came in with a Kinact/Kl of 2.56e+06 M⁻¹ s⁻¹.

In turn, `C=CC(=O)N1Cc2cc(CN3C[C@H]4CC(=O)N(c5cc(C(F)(F)F)cc(C)n5)[C@@H]4C(=O)N(C)c4cccc(Cl)c43)ccc2C1CC#N` (single isomer, unassigned) [Example 287b] registered a Kinact/Kl of 1.19e+06 M⁻¹ s⁻¹.

Take `C=CC(=O)Nc1ccc(CN2C[C@H]3CC(=O)N(c4cc(C(F)(F)F)cc(C)n4)[C@@H]3C(=O)N(C)c3cccc(Cl)c32)cn1` [Example 282, N-(5-(((3aR,11aS)-6-chloro-10-methyl-1-(6-methyl-4-(trifluoromethyl)pyridin-2-yl)-2,11-dioxo-1,2,3,3a,4,10,11,11a-octahydro-5H-benzo[b]pyrrolo[2,3-f][1,4]diazocin-5-yl)methyl)pyridin-2-yl)acrylamide]: the Kinact/Kl is 870000 M⁻¹ s⁻¹.

`C=C(CN(C)C)C(=O)N1CC(C2CCC(CN3C[C@H]4CC(=O)N(c5cc(C(F)(F)F)cc(C)n5)[C@@H]4C(=O)N(C)c4cccc(Cl)c43)CC2)C1` (stereo partly drawn) [Example 160, (3aR,11aS)-6-chloro-5-((4-(1-(2-((dimethylamino)methyl)acryloyl)azetidin-3-yl)cyclohexyl)methyl)-10-methyl-1-(6-methyl-4-(trifluoromethyl)pyridin-2-yl)-1,3a,4,5,10,11a-hexahydro-2H-benzo[b]pyrrolo[2,3-f][1,4]diazocine-2,11(3H)-dione] came in with a Kinact/Kl of 2.3e+06 M⁻¹ s⁻¹.

For `C=CC(=O)N1CCC[C@H]1c1nnc(CN2C[C@H]3CC(=O)N(c4cc(C(F)(F)F)cc(C)n4)[C@@H]3C(=O)N(C)c3cccc(C)c32)o1` [Example 273, (3aR,11aS)-5-((5-((S)-1-acryloylpyrrolidin-2-yl)-1,3,4-oxadiazol-2-yl)methyl)-6,10-dimethyl-1-(6-methyl-4-(trifluoromethyl)pyridin-2-yl)-1,3a,4,5,10,11a-hexahydro-2H-benzo[b]pyrrolo[2,3-f][1,4]diazocine-2,11(3H)-dione], the Kinact/Kl was found to be 60000 M⁻¹ s⁻¹.

Take `C=CC(=O)N1CCN(CCN2C[C@H]3CC(=O)N(c4cc(C(F)(F)F)cc(C)n4)[C@@H]3C(=O)N(C)c3cccc(C)c32)[C@@H](C)C1` [Example 260, (3aR,11aS)-5-(2-((S)-4-acryloyl-2-methylpiperazin-1-yl)ethyl)-6,10-dimethyl-1-(6-methyl-4-(trifluoromethyl)pyridin-2-yl)-1,3a,4,5,10,11a-hexahydro-2H-benzo[b]pyrrolo[2,3-f][1,4]diazocine-2,11(3H)-dione]: the Kinact/Kl was determined as 1.54e+06 M⁻¹ s⁻¹.
